Assay results: article PMC9848300, “Discovery of novel enasidenib analogues targeting inhibition of mutant isocitrate dehydrogenase 2 as antileukaemic agents” (Journal of Enzyme Inhibition and Medicinal Chemistry, 2023)
Changes are numbered by the printed parent chain.

Assays:
[1] = test system: NCI/ADR-RES; assay: NCI 60 antitumor screening (single dose / five doses); assay type: cell-based; conditions: Homo sapiens; for inhibition at 10 µM: NCI/ADR-RES (ovarian cancer), single dose 10 μM, read-out: Growth inhibition percentage (GI %); for GI50: NCI/ADR-RES, five doses (0.01–100 μM), read-out: GI50
[2] = test system: HL-60(TB) cells; assay: Cell cycle analysis (PI, flow cytometry); assay type: cell-based, human; conditions: 24 h
Description: Targeting cancer cell cycle has been emerged as a viable approach for cancer treatment. To recognise the role of compound 6c in GI of cancer cells, and induction of apoptosis in different phases, DNA flow cytometric analysis was performed to measure the effect of compound 6c on cell cycle progression for leukaemia, HL-60(TB) cancer cells.
Following that, two runs of wash with ice-cold phosphate-buffered saline (PBS) were performed. And then, the treated HL-60(TB) cells were centrifuged and frozen in ethanol (70%, ice-cold) then washed in PBS, resuspended with RNase ([…]), stained with PI ([…]), finally analysed by flow cytometry using a FACS Calibur (Becton Dickinson, BD; Franklin Lakes, NJ). To calculate the cell cycle distributions, CellQuest software version 5.1 (Becton Dickinson) was used.

[3] = molecular target: T1, IDH2^R140Q (Homo sapiens, UniProt P48735, R140Q); assay: biochemical
T1 sequence (P48735 40-452 R140Q): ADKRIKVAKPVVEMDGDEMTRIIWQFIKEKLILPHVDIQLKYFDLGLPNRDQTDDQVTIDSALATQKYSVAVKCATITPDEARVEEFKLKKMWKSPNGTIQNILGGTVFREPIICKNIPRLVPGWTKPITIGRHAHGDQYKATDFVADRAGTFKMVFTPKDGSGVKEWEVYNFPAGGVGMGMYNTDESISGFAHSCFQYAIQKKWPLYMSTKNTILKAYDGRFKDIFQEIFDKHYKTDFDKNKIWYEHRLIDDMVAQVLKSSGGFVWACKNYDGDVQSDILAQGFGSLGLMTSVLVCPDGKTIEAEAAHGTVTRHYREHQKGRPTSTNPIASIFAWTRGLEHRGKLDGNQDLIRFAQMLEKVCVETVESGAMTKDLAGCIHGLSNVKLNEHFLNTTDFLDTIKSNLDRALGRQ

[4] = molecular target: T2, wild type IDH2 (Homo sapiens, UniProt P48735); assay: IDH2 enzyme inhibition assay (wild type IDH Assay Kit)
T2 sequence (P48735 40-452): T1 sequence (P48735 40-452 R140Q) with Q101R

[5] = test system: SK-MEL-28; assay: NCI 60 antitumor screening (single dose / five doses); assay type: cell-based; conditions: Homo sapiens; for inhibition at 10 µM: SK-MEL-28 (melanoma), single dose 10 μM, read-out: Growth inhibition percentage (GI %); for GI50: SK-MEL-28, five doses (0.01–100 μM), read-out: GI50
[6] = test system: DU-145; assay: as above; assay type: cell-based; conditions: Homo sapiens; for inhibition at 10 µM: DU-145 (prostate cancer), single dose 10 μM, read-out: Growth inhibition percentage (GI %); for GI50: DU-145, five doses (0.01–100 μM), read-out: GI50
[7] = in vitro; conditions: human
Description: Data was measured in triplicate, and IC50 values are given as mean values ± SD.

[8] = test system: HOP-92; assay: NCI 60 antitumor screening (single dose / five doses); assay type: cell-based; conditions: Homo sapiens; for inhibition at 10 µM: HOP-92 (non-small cell lung cancer), single dose 10 μM, read-out: Growth inhibition percentage (GI %); for GI50: HOP-92, five doses (0.01–100 μM), read-out: GI50
[9] = test system: active Caspase 9; assay: Western blot analysis for apoptotic markers; assay type: cell-based, human; conditions: HL-60(TB) cells
Description: (§1) Cysteine-containing aspartic acid-specific proteases, caspases provide essential links in cell controlling the apoptotic machinery[45]^,[46]. For this reason, this study was further extended to investigate the mechanism of compound 6c to provoke apoptosis in HL-60(TB) leukaemia cell line.
(§2) Compound 6c was incubated with the seeded cells following the procedure described by W. Neal Burnette[60].

[10] = test system: active Caspase 3; assay: Western blot analysis for apoptotic markers; assay type: cell-based, human; conditions: HL-60(TB) cells
Description: as §1, §2

[11] = test system: MDA-MB-468; assay: NCI 60 antitumor screening (single dose / five doses); assay type: cell-based; conditions: Homo sapiens; for inhibition at 10 µM: MDA-MB-468 (breast cancer), single dose 10 μM, read-out: Growth inhibition percentage (GI %); for GI50: MDA-MB-468, five doses (0.01–100 μM), read-out: GI50
[12] = test system: HL-60(TB) cells; assay: Annexin V-FITC/PI apoptosis assay; assay type: cell-based, human; conditions: GI50 (158 nM), 24 h
Description: Extrinsic as well as intrinsic apoptosis in leukaemia, HL-60(TB) cancer cells, induced by compound 6c was evaluated by Annexin V and PI staining. […] Compound 6c induced an early apoptosis (2.88%), in HL-60(TB) at 24 h compared to control (0.51%) and enhanced late apoptotic induction (15.75%) by more than 85-fold over the untreated cells (0.18%). Moreover, compound 6c induced necrosis by 7 times more than control as declared in Figures 8 and 9.
Annexin V-fluorescein isothiocyanate (Annexin V-FITC) has high affinity to phosphatidylserine (PS). This affinity enables detection of PS by Annexin V-FITC staining as previously described.

Row | Compound | inhibition at 10 µM [1] | GI50 [1] | IC50 [3] | IC50 [4] | inhibition at 10 µM [5] | inhibition at 10 µM [6] | GI50 [6] | inhibition at 10 µM [8] | GI50 [8] | inhibition at 10 µM [11] | GI50 [11] | further results
1 | Brc1cccc(/C=N/Nc2nc(N/N=C/c3cccc(Br)c3)nc(N3CCOCC3)n2)c1 [compound 6c, 2,4-Bis[(E)-2-[(3-bromophenyl)methylidene]hydrazin-1-yl]-6-(morpholin-4-yl)-1,3,5-triazine] | 58.2% | 3250 nM | 102 ± 4.97 nM | 2930 ± 110 nM | 82.9% | 72.7% | 1310 nM | 36.2% | 1240 nM | 98.9% | 1910 nM | increase of apoptotic cells at the pre-G1 phase compared to DMSO ([2]; 158 nM): 14 fold; Cell cycle distribution %G0–G1 ([2]; GI50 concentration (158 nM)): 54.06%; Cell cycle distribution %G2/M ([2]; GI50 concentration (158 nM)): 4.76%; Cell cycle distribution %Pre-G1 ([2]; GI50 concentration (158 nM)): 28.02%; Cell cycle distribution %S ([2]; GI50 concentration (158 nM)): 41.18%; IC50 [7]: 53700 ± 2940 nM; expression of active caspase 9 in comparison to the control [9]: ~4 fold; expression of active caspase 3 in comparison to the control [10]: about 3 fold; early apoptosis [12]: 2.88%; late apoptotic induction [12]: 15.75%; late apoptotic induction over the untreated cells [12]: more than 85 fold; necrosis induction relative to control [12]: 7 times
2 | Fc1cccc(/C=N/Nc2nc(N/N=C/c3cccc(F)c3)nc(N3CCOCC3)n2)c1 [compound 6e, 2,4-Bis[(E)-2-[(3-Fluorophenyl)methylidene]hydrazin-1-yl]-6-(morpholin-4-yl)-1,3,5-triazine] | 8.29% | – | 67 ± 3.27 nM | 2300 ± 90 nM | 10.1% | 40.5% | – | 8.68% | – | 11.5% | – | –
3 | CN(C)c1ccc(/C=N/Nc2nc(N/N=C/c3ccc(N(C)C)cc3)nc(N3CCOCC3)n2)cc1 [compound 6g, 4-[(1e)-(2-{4-[(E)-2-{[4-(dimethylamino)phenyl]methylidene}hydrazin-1-yl]-6-(morpholin-4-yl)-1,3,5-triazin-2-yl}hydrazin-1-ylidene)methyl]-N,N-dimethylaniline] | 0.17% | – | 336 ± 16.4 nM | – | -5.75% | 7.27% | – | -8.78% | – | 2.17% | – | –
4 | Fc1cccc(Cl)c1/C=N/Nc1nc(N/N=C/c2c(F)cccc2Cl)nc(N2CCOCC2)n1 [compound 6l, 2,4-Bis[(E)-2-[(2-Chloro-6-fluorophenyl)methylidene]hydrazin-1-yl]-6-(morpholin-4-yl)-1,3,5-triazine] | 16.8% | – | 158 ± 7.72 nM | 3440 ± 130 nM | 10% | 4.76% | – | 27% | – | 24.6% | – | –
5 | Oc1ccccc1/C=N/Nc1nc(N/N=C/c2ccccc2O)nc(N2CCCCC2)n1 [compound 7a, 2-[(1e)-(2-{4-[(E)-2-[(2-Hydroxyphenyl)methylidene]hydrazin-1-yl]-6-(piperidin-1-yl)-1,3,5-triazin-2-yl}hydrazin-1-ylidene)methyl] phenol] | 81% | – | 130 ± 6.35 nM | 5420 ± 210 nM | 36.6% | 45.2% | – | 21.6% | – | 36.2% | – | –
6 | Brc1cccc(/C=N/Nc2nc(N/N=C/c3cccc(Br)c3)nc(N3CCCCC3)n2)c1 [compound 7c, 2,4-Bis[(E)-2-[(3-Bromophenyl)methylidene]hydrazin-1-yl]-6-(piperidin-1-yl)-1,3,5-triazine] | 9.29% | – | 88.9 ± 4.34 nM | 3130 ± 120 nM | 0.82% | -1.2% | – | -12.8% | – | 9.99% | – | –
7 | Clc1cccc(/C=N/Nc2nc(N/N=C/c3cccc(Cl)c3)nc(N3CCCCC3)n2)c1 [compound 7d, 2,4-Bis[(E)-2-[(3-Chlorophenyl)methylidene]hydrazin-1-yl]-6-(piperidin-1-yl)-1,3,5-triazine] | 4.8% | – | 370 ± 18 nM | – | 3.79% | 5.38% | – | -7.89% | – | 23.7% | – | –
8 | Fc1cccc(/C=N/Nc2nc(N/N=C/c3cccc(F)c3)nc(N3CCCCC3)n2)c1 [compound 7e, 2,4-Bis[(E)-2-[(3-Fluorophenyl)methylidene]hydrazin-1-yl]-6-(piperidin-1-yl)-1,3,5-triazine] | 23.9% | – | 176 ± 8.6 nM | 5070 ± 200 nM | 9.32% | 2.92% | – | -16% | – | 9.17% | – | –
9 | CN(C)c1ccc(/C=N/Nc2nc(N/N=C/c3ccc(N(C)C)cc3)nc(N3CCCCC3)n2)cc1 [compound 7g, 4-[(1e)-(2-{4-[(E)-2-{[4-(dimethylamino)phenyl]methylidene}chydrazin-1-yl]-6-(piperidin-1-yl)-1,3,5-triazin-2-yl}hydrazin-1-ylidene)methyl]-N,N-dimethylaniline] | 41.7% | 3190 nM | 505 ± 24.7 nM | – | 58.3% | 22.5% | 3920 nM | 16% | 1470 nM | 63.7% | 1640 nM | GI50 [5]: 2000 nM
10 | Fc1cccc(Cl)c1/C=N/Nc1nc(N/N=C/c2c(F)cccc2Cl)nc(N2CCCCC2)n1 [compound 7l, 2,4-Bis[(E)-2-[(2-Chloro-6-fluorophenyl)methylidene]hydrazin-1-yl]-6-(piperidin-1-yl)-1,3,5-triazine] | 84.8% | 2760 nM | 160 ± 7.81 nM | 9500 ± 370 nM | 55.1% | 39% | 11700 nM | 101% | 1470 nM | 114% | 1860 nM | GI50 [5]: 3410 nM
